What was measured:
Test in all cases: Histone peptide microarray
Format in all cases: binding, human
PHF23 = conditions: PHF23, GST-tagged; arrays performed twice, n of 4
Excerpt: (§1) To more comprehensively define the histone interactions of the 31 PHD readers identified from the domain microarray analyses, we probed each on an alternate microarray platform containing a library of 293 synthetic histone peptides with single or combinatorial PTMs (Additional file 2: Figure S4 and Additional file 3: Table S2).
(§2) The 31 GST-tagged PHD readers identified in the PHD finger domain array were expressed and purified as previously. Histone peptide arrays and peptide pulldown assays were conducted as recently described (specifically, the optimized protocol from Petell et al. for the former).
(§3) Supplementary file 13072_2020_328_MOESM3_ESM.xlsx: Additional file 3: Table S2. […] Excel Tab Peptide List is a compiled list of the entire 293 histone peptide library with amino acid sequence ranges. […] Each number corresponds to the peptide number designated in Peptide List. Excel Tab Average Signals is a compiled set of binding data: chromatin reader at 0.5 μM vs. entire 293 peptide library. Data is presented as the average and standard deviation of 4 replicates. The average signals are colored to indicate signal intensity with green being strong and white being weak/low. […] Key: red= stronger relative binding; blue = weaker relative binding. Excel Tab Array info summary is a table summarizing the domains, sequence coverage, array signal range, and noise for each of the GST-tagged readers assayed on the peptide microarrays.

CHD5 (PCC) = conditions: CHD5 (PCC), GST-tagged; arrays performed twice, n of 4
Excerpt: as §1, §2, §3

CHD4 (PPCC) = conditions: CHD4 (PPCC), GST-tagged; arrays performed twice, n of 4
Excerpt: as §1, §2, §3

PHF13 = conditions: PHF13, GST-tagged; arrays performed twice, n of 4
Excerpt: as §1, §2, §3

MLL5 = conditions: MLL5, GST-tagged; arrays performed twice, n of 4
Excerpt: as §1, §2, §3

ING5 = conditions: ING5, GST-tagged; arrays performed twice, n of 4
Excerpt: as §1, §2, §3

ING2 = conditions: ING2, GST-tagged; arrays performed twice, n of 4
Excerpt: as §1, §2, §3

TRIM66 (PB) = conditions: TRIM66 (PB), GST-tagged; arrays performed twice, n of 4
Excerpt: as §1, §2, §3

KDM7A = conditions: KDM7A, GST-tagged; arrays performed twice, n of 4
Excerpt: as §1, §2, §3

ING3 = conditions: ING3, GST-tagged; arrays performed twice, n of 4
Excerpt: as §1, §2, §3

PHF8 = conditions: PHF8, GST-tagged; arrays performed twice, n of 4
Excerpt: as §1, §2, §3

DIDO1 = conditions: DIDO1, GST-tagged; arrays performed twice, n of 4
Excerpt: as §1, §2, §3

PHF21A = conditions: PHF21A, GST-tagged; arrays performed twice, n of 4
Excerpt: as §1, §2, §3

SP140L = conditions: SP140L, GST-tagged; arrays performed twice, n of 4
Excerpt: as §1, §2, §3

KDM5A (3) = conditions: KDM5A (3), GST-tagged; arrays performed twice, n of 4
Excerpt: as §1, §2, §3

PHRF1 (RP) = conditions: PHRF1 (RP), GST-tagged; arrays performed twice, n of 4
Excerpt: as §1, §2, §3

ING1 = conditions: ING1, GST-tagged; arrays performed twice, n of 4
Excerpt: as §1, §2, §3

DPF2 (PPC2W2) = conditions: DPF2 (PPC2W2), GST-tagged; arrays performed twice, n of 4
Excerpt: as §1, §2, §3

PHF2 = conditions: PHF2, GST-tagged; arrays performed twice, n of 4
Excerpt: as §1, §2, §3

BAZ2B = conditions: BAZ2B, GST-tagged; arrays performed twice, n of 4
Excerpt: as §1, §2, §3

ING4 = conditions: ING4, GST-tagged; arrays performed twice, n of 4
Excerpt: as §1, §2, §3

AIRE (PP) = conditions: AIRE (PP), GST-tagged; arrays performed twice, n of 4
Excerpt: as §1, §2, §3

MORC3 (CW) = conditions: MORC3 (CW), GST-tagged; arrays performed twice, n of 4
Excerpt: as §1, §2, §3

TAF3 = conditions: TAF3, GST-tagged; arrays performed twice, n of 4
Excerpt: as §1, §2, §3

CHD5 (PPCC) = conditions: CHD5 (PPCC), GST-tagged; arrays performed twice, n of 4
Excerpt: as §1, §2, §3

KDM5B (3) = conditions: KDM5B (3), GST-tagged; arrays performed twice, n of 4
Excerpt: as §1, §2, §3

KDM4C (TTP) = conditions: KDM4C (TTP), GST-tagged; arrays performed twice, n of 4
Excerpt: as §1, §2, §3

KDM5A (1) = conditions: KDM5A (1), GST-tagged; arrays performed twice, n of 4
Excerpt: as §1, §2, §3

RAG2 = conditions: RAG2, GST-tagged; arrays performed twice, n of 4
Excerpt: as §1, §2, §3

BPTF (PB) = conditions: BPTF (PB), GST-tagged; arrays performed twice, n of 4
Excerpt: as §1, §2, §3

| Array Heatmap value (peptide array binding signal) (PHF23) | Array Heatmap value (peptide array binding signal) (CHD5 (PCC)) | Array Heatmap value (peptide array binding signal) (CHD4 (PPCC)) | Array Heatmap value (peptide array binding signal) (PHF13) | Array Heatmap value (peptide array binding signal) (MLL5) | Array Heatmap value (peptide array binding signal) (ING5) | Array Heatmap value (peptide array binding signal) (ING2) | Array Heatmap value (peptide array binding signal) (TRIM66 (PB)) | Array Heatmap value (peptide array binding signal) (KDM7A) | Array Heatmap value (peptide array binding signal) (ING3) | Array Heatmap value (peptide array binding signal) (PHF8) | Array Heatmap value (peptide array binding signal) (DIDO1) | Array Heatmap value (peptide array binding signal) (PHF21A) | Array Heatmap value (peptide array binding signal) (SP140L) | Array Heatmap value (peptide array binding signal) (KDM5A (3)) | Array Heatmap value (peptide array binding signal) (PHRF1 (RP)) | Array Heatmap value (peptide array binding signal) (ING1) | Array Heatmap value (peptide array binding signal) (DPF2 (PPC2W2)) | Array Heatmap value (peptide array binding signal) (PHF2) | Array Heatmap value (peptide array binding signal) (BAZ2B) | Substance | also measured |
| --- | --- | --- | --- | --- | --- | --- | --- | --- | --- | --- | --- | --- | --- | --- | --- | --- | --- | --- | --- | --- | --- |
| 0.509 | 0.7385 | 0.5383 | 0.5774 | 0.5139 | 0.3563 | 0.5823 | 0.5396 | 0.3523 | 0.4411 | 0.3305 | 0.6124 | 0.4348 | 0.3592 | 0.4193 | 0.4298 | 0.5084 | 0.6547 | 0.425 | 0.4504 | H4K5ac + K16ac: H4 1-23 | Array Heatmap value (peptide array binding signal) (ING4): 0.4436; Array Heatmap value (peptide array binding signal) (AIRE (PP)): 0.4583; Array Heatmap value (peptide array binding signal) (MORC3 (CW)): 0.3384; Array Heatmap value (peptide array binding signal) (TAF3): 0.2655; Array Heatmap value (peptide array binding signal) (CHD5 (PPCC)): 0.5427; Array Heatmap value (peptide array binding signal) (KDM5B (3)): 0.4611; Array Heatmap value (peptide array binding signal) (KDM4C (TTP)): 0.5082; Array Heatmap value (peptide array binding signal) (KDM5A (1)): 0.4676; Array Heatmap value (peptide array binding signal) (RAG2): 0.2387; Array Heatmap value (peptide array binding signal) (BPTF (PB)): 0.3372 |
| 0.5681 | 0.7798 | 0.6142 | 0.6435 | 0.5981 | 0.3748 | 0.626 | 0.6387 | 0.3765 | 0.4924 | 0.3528 | 0.8611 | 0.4816 | 0.3553 | 0.4387 | 0.4574 | 0.5678 | 0.687 | 0.5535 | 0.4974 | H4K5me1 + K8ac + K12me1: H4 1-23 | Array Heatmap value (peptide array binding signal) (ING4): 0.4694; Array Heatmap value (peptide array binding signal) (AIRE (PP)): 0.4591; Array Heatmap value (peptide array binding signal) (MORC3 (CW)): 0.3838; Array Heatmap value (peptide array binding signal) (TAF3): 0.2843; Array Heatmap value (peptide array binding signal) (CHD5 (PPCC)): 0.5643; Array Heatmap value (peptide array binding signal) (KDM5B (3)): 0.5017; Array Heatmap value (peptide array binding signal) (KDM4C (TTP)): 0.4942; Array Heatmap value (peptide array binding signal) (KDM5A (1)): 0.4746; Array Heatmap value (peptide array binding signal) (RAG2): 0.2728; Array Heatmap value (peptide array binding signal) (BPTF (PB)): 0.368 |
| 0.5446 | 0.851 | 0.619 | 0.6372 | 0.5583 | 0.3655 | 0.6061 | 0.6442 | 0.3674 | 0.4977 | 0.35 | 0.7167 | 0.4789 | 0.3587 | 0.4441 | 0.5051 | 0.5585 | 0.7329 | 0.5422 | 0.4829 | H4K5me1 + K8me1 + K12me1: H4 1-23 | Array Heatmap value (peptide array binding signal) (ING4): 0.4603; Array Heatmap value (peptide array binding signal) (AIRE (PP)): 0.4682; Array Heatmap value (peptide array binding signal) (MORC3 (CW)): 0.3716; Array Heatmap value (peptide array binding signal) (TAF3): 0.2856; Array Heatmap value (peptide array binding signal) (CHD5 (PPCC)): 0.5726; Array Heatmap value (peptide array binding signal) (KDM5B (3)): 0.4984; Array Heatmap value (peptide array binding signal) (KDM4C (TTP)): 0.4976; Array Heatmap value (peptide array binding signal) (KDM5A (1)): 0.4935; Array Heatmap value (peptide array binding signal) (RAG2): 0.2518; Array Heatmap value (peptide array binding signal) (BPTF (PB)): 0.3553 |
| 0.5595 | 0.7879 | 0.6125 | 0.6695 | 0.5342 | 0.3961 | 0.6214 | 0.6251 | 0.4096 | 0.5255 | 0.3768 | 0.7526 | 0.5044 | 0.383 | 0.5089 | 0.4693 | 0.5851 | 0.6365 | 0.546 | 0.4965 | H4K8ac + K12ac + K16ac: H4 1-23 | Array Heatmap value (peptide array binding signal) (ING4): 0.4992; Array Heatmap value (peptide array binding signal) (AIRE (PP)): 0.4841; Array Heatmap value (peptide array binding signal) (MORC3 (CW)): 0.3996; Array Heatmap value (peptide array binding signal) (TAF3): 0.2999; Array Heatmap value (peptide array binding signal) (CHD5 (PPCC)): 0.614; Array Heatmap value (peptide array binding signal) (KDM5B (3)): 0.4821; Array Heatmap value (peptide array binding signal) (KDM4C (TTP)): 0.5459; Array Heatmap value (peptide array binding signal) (KDM5A (1)): 0.498; Array Heatmap value (peptide array binding signal) (RAG2): 0.271; Array Heatmap value (peptide array binding signal) (BPTF (PB)): 0.384 |
